Calls of active or inactive are those of the source. No rule for the calls is given here.
Tested on: M. tuberculosis H37Rv growth inhibition with meropenem
Experiment: dose response, H37Rv, with and without meropenem (AID 434987);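 also: growth over 7 days at 37 °C before Alamar Blue read on day 9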
[1] = M. tuberculosis H37Rv growth inhibition, measured here: IC50 without meropenem
[2] = M. tuberculosis H37Rv growth inhibition, measured here: IC90 without meropenem
[3] = measured here: IC90 with meropenem

| SMILES | IC50 | IC50 [1] [µM] | IC90 [2] [µM] | IC90 [3] [µM] |
| --- | --- | --- | --- | --- |
| CCN1C(=O)C(=Cc2ccc(N3CCOCC3)o2)C(=O)N(CC)C1=S | > 100 µM (inactive) | > 100 | > 100 | > 100 |
| CSc1ncccc1C(=O)Nc1nc2ccc(Oc3ccccc3)cc2s1 | > 100 µM (inactive) | > 100 | > 100 | > 100 |
| CCCCNC(=O)c1onc(CSc2ccc(F)c(F)c2)c1C(=O)O | 27.8 µM (inactive) | 54.4 | > 100 | 56.8 |
| CCCOc1ccc(C(=O)CCN2CCCCC2)cc1 | 13.4 µM | 54 | 77.1 | 36.4 |
| COc1ccc(-c2csc(/C=C/c3ccc4c(c3)OCO4)n2)cc1OC | 16.1 µM | > 100 | > 100 | > 100 |
| CC(=O)Nc1ccc(SCC(=O)c2cc(C)n(C)c2C)cc1 | 47 µM (inactive) | 57.3 | > 100 | 53.6 |
| BrC(=C\c1ccccc1)/C=N/N1CCN(c2ccccn2)CC1 | > 100 µM (inactive) | > 100 | > 100 | > 100 |
| Cc1cc(C(=O)CSc2nnnn2-c2ccccc2)c(C)n1-c1ccc2c(c1)OCO2 | 44.9 µM (inactive) | 49.7 | > 100 | 60.9 |
| O=C(CSc1nnc(SCc2ccc(Cl)cc2)s1)c1ccc2c(c1)OCO2 | > 100 µM (inactive) | > 100 | > 100 | > 100 |
| O=C(CSc1nnc(COc2ccccc2)o1)N1CCN(c2ccccc2)CC1 | > 100 µM (inactive) | > 100 | > 100 | > 100 |
| O=C(N/N=C/c1cc([N+](=O)[O-])ccc1O)C1CC1 | 4.14 µM | 58.9 | > 100 | > 100 |
| Cc1ccc(-c2nc3ccccc3o2)cc1NC(=S)NC(=O)/C=C/c1ccco1 | 65.8 µM (inactive) | > 100 | > 100 | > 100 |
| COC(=O)c1ccccc1NC(=O)CSCC(=O)Nc1ccc(F)cc1 | 39.7 µM (inactive) | 94.9 | > 100 | > 100 |
| CN(C)S(=O)(=O)Oc1ccsc1C(=O)Nc1ccc(C(F)(F)F)cc1 | > 100 µM (inactive) | > 100 | > 100 | > 100 |
| Cc1nn(CCc2nn[nH]n2)c2nc(-c3ccc(C4CCCCC4)cc3)cc(C(F)(F)F)c12 | 8.62 µM | 24.9 | 50 | > 100 |
| O=C(Nc1ccc2oc(-c3ccc(Cl)c(Cl)c3)nc2c1)c1ncn[nH]1 | 61.9 µM (inactive) | 79.8 | > 100 | > 100 |
| CN(C)c1ccc(/C=N/NC(=O)c2cc(-c3ccc4c(c3)OCO4)n[nH]2)cc1 | > 100 µM (inactive) | > 100 | > 100 | > 100 |
| CC(C)(C)c1nn(-c2ccccc2)c2[nH]c(=O)c(CNc3ccc4c(c3)OCCO4)cc12 | 91.2 µM (inactive) | 89.7 | > 100 | 99.7 |
| O=C(COc1ccccc1)Nc1cccc(-c2nnc(-c3ccccc3)o2)c1 | > 100 µM (inactive) | > 100 | > 100 | > 100 |
| CC(C)NC(=S)NN=C1c2ccccc2-c2ccccc21 | 35.7 µM (inactive) | 58.2 | > 100 | > 100 |
| COc1ccc(-c2c(-c3ccsc3)oc3ccc(N4CCOCC4)cc23)cc1 | > 100 µM (inactive) | > 100 | > 100 | > 100 |
| O=C(O/N=C\c1ccc(N2CCCCC2)c([N+](=O)[O-])c1)c1c(F)cccc1F | > 100 µM (inactive) | > 100 | > 100 | > 100 |
| CC(=O)Nc1ccc(SCC(=O)c2cc(C)n(CC(F)(F)F)c2C)cc1 | 47.7 µM (inactive) | 53.5 | > 100 | > 100 |
| O=C1NC(c2ccc(Br)cc2)Nc2sc3c(c21)CCC3 (stereo unspecified) | > 100 µM (inactive) | > 100 | > 100 | > 100 |
| O=C(COc1ccccc1)Nc1cc(C(F)(F)F)ccc1N1CCCC1 | 46.6 µM (inactive) | > 100 | > 100 | > 100 |
| CN(C)CC(=O)Nc1nc(-c2ccccc2)cs1 | 10.5 µM | 83 | > 100 | > 100 |
| O=C(Nc1c2c(nc3ccccc13)CCCC2)c1ccccc1F | 42.6 µM (inactive) | 74 | > 100 | > 50 |
| Cc1cccc(-n2nc([N+](=O)[O-])c(=NC3CCN(Cc4ccccc4)CC3)n2O)c1 | 25.9 µM (inactive) | 45.8 | 49 | 30.5 |
| CCOC(=O)C1CCN(C(=O)c2sc3nc(C)nc(N4CCC(C)CC4)c3c2C)CC1 | 69.5 µM (inactive) | 76.5 | > 100 | > 100 |

— PubChem BioAssay AID434987 (Southern Research Specialized Biocontainment Screening …, 2010)
